US20100280117A1 (Xanodyne Pharmaceuticals, Inc., priority 2009, published 2010)

Experiments:
women with menorrhagia [1] = test: Example VII double-blind placebo-controlled clinical study, three treated menstrual periods; details: for proportion of responders (reduction in MBL and meaningful improvement, MI measure 6c): after first treated cycle, p<0.0001 vs placebo
Method: (§1) This was a multi-center, double-blind, placebo-controlled, parallel-group study.
The primary objective of the study was to determine the efficacy of a 1.95 gm/day of tranexamic acid (650 mg orally three times daily, TID) and 3.9 gm/day of tranexamic acid (1.3 gm orally three times daily, TID) administered during menstruation for up to 5 days (maximum of 15 doses) to reduce menstrual blood loss in women with objective evidence of heavy menstrual bleeding.
The secondary objective of the study was to determine the improvement with administration of 1.95 gm/day or 3.9 gm/day of tranexamic acid in women with heavy menstrual bleeding in their symptoms including, Limitation in Social Leisure Activities (LSLA) and Limitation in Physical Activities (LPA) scores from the Menorrhagia Instrument Measures (FIG. 1). Further the objective was to determine the safety of the 1.95 gm/day and 3.9 gm/day of the modified release tranexamic acid formulation administered during menstruation.
All periods were evaluated for the secondary endpoints, and for safety of tranexamic acid at an oral dose of 1.3 gm or placebo administered three (3) times daily for up to five consecutive (5) days (maximum of 15 doses) during menstruation.
Menstrual blood loss (MBL) was assessed during the entire menstrual period by the alkaline hematin test (AHT) method. The Menorrhagia Instrument Measures (FIG. 1) were also administered immediately after each menstrual period under investigation. For the Primary Endpoint, the objective reduction in menstrual blood loss (MBL) during the entire menstrual period as assessed by the AHT Method was assessed.
For the Secondary Endpoints, the scores for Limitation in Social Leisure Activities (LSLA) and the scores for Limitation in Physical Activities (LPA) from the Menorrhagia Instrument Measures (MI), measures #4 and #3, respectively) were assessed.
For the Secondary Endpoints the data collected included at least; Menstrual Blood Loss (MBL) assessment score (MI measure 1), Limitation in Work Outside or Inside the Home (LWH) score (MI item 2), and subject assessment of meaningfulness score from the MI (measure 6) (used for the MBL responder analysis).
(§2) The efficacy results were based on the modified ITT (mITT) populations.

heavy menstrual bleeding [2] = details: open label uncontrolled, 849 patients; cited from earlier work
women with menorrhagia [3] = test: Example VIII double-blind placebo-controlled clinical study, six treated menstrual periods
Method: as §1
Menstrual blood loss (MBL) was assessed during the entire menstrual period by the alkaline hematin test (AHT) method. Measures from the Menorrhagia Instrument (FIG. 1) were also administered immediately after each menstrual period under investigation. Subjects reported large stains exceeding the capacity of sanitary protection (and other patient reported outcome [PRO] items) during the menstrual period in daily diaries.
For the Primary Endpoint, the objective reduction in menstrual blood loss (MBL) during the entire menstrual period as assessed by the AHT Method was assessed.
For the Secondary Endpoints, the Limitation in Social Leisure Activities (LSLA) and the Limitation in Physical Activities (LPA) scores from the Menorrhagia Instrument (MI measures #4 and #3, respectively) and the total number of large stains responder analysis during the menstrual period from subject diaries were assessed.
For the Secondary Endpoints, assessment of the following were included, Menstrual Blood Loss (MBL) assessment score (MI measure #1), Limitation in Work Outside or Inside the Home (LWH) score (MI measure #2), and subject assessment of meaningfulness score from the MI (Measure #6) (used for the MBL responder analysis).
as §2

heavy menstrual bleeding [4] = details: cited from earlier work
[5] = Randomized single-dose 4-way crossover bioequivalence/bioavailability study, fasting; parameters: species or system human (healthy female volunteers); details: female, human, in vivo, iv
[6] = system: patients diagnosed with menorrhagia; test: Menorrhagia Instrument (MI) validation sub-study, treatment cohort; format: in vivo, human (women)
Method: The MI was evaluated in a sub population of patients enrolled in a clinical trial designed to assess the safety and efficacy of tranexamic acid at an oral dose of 3.9 g administered daily for up to 5 days during each menstrual period. Two groups of patients were used to assess the MI, one group of patients were those diagnosed with menorrhagia and undergoing treatment. The second group was an age matched normal group. The sub-study was designed: to collect sufficient quantitative data to support the construct-related validation of the MI measures; to collect sufficient quantitative data to support the assessment of meaningful/important change in blood loss to the women; to conduct a test/retest evaluation of the instrument, and to address the reliability of the MI measures.
A total of 262 women completed the MI. […] The MI measures 1-5 were administered at baseline and at the subsequent first and second non-treatment periods for the subjects in the normal cohort The MI measure 6 was administered and data collected, at Month 1 and Month 2. The Ruta Menorrhagia Questionnaire, SF-36 Health Survey and the MI were completed by the subject before visit procedures were performed. A subset of at least 50 subjects were asked to return to the study site 7 to 10 days after the baseline Visit but before the next menstrual period starts to complete the MI a second time.
A total of 177 patients were enrolled into the sub-study. […] The 149 patients remaining were intended to be age matched. The majority of patients in the study were in their late 30's or early 40's. Because of the difficulty of enrolling sufficient numbers of women with normal menstrual periods in this age bracket 18 evaluable patients were not age matched. A total of 131 evaluable patients were age matched. A sub-set of 80 evaluable patients participated in the test/retest segment of the validation. Of these patients 11 were evaluable but not age matched. Data from all 80 patients were used for statistical evaluation of the test/re-test correlations.
The following Measures were summarized and statistically analyzed: • MI measure1—Blood Loss Rating • MI measure 2—Limitation of Work Outside or Inside the Home • MI measure 3—Limitation of Physical Activities • MI measure 4—Limitation of Social or Leisure Activities • MI measure 6/6a/6b—Menstrual Blood Loss During Last Period • MI measure 6c—Meaningfulness of Change in Menstrual Blood Loss
The MI consisted of 4 individual measures (1-4) that were analyzed separately for validation. No summative scale was derived. […] Measures 6, 6a and 6b dealt with menstrual blood loss relative to the previous menstrual period. The answers to the measures in the subparts of measure 6, were combined to produce a 15 point rating scale. The scale values range from −7 to +7 with −7 representing a very great deal worse menstrual blood loss than the previous period, and +7 representing a very great deal better menstrual blood loss than the previous period. The midpoint (0) represents the perception of about the same menstrual blood loss as the previous period.
The ability to detect change required that values for the item or instrument change when the concept it measures changed. In order to measure the MI items ability to detect change, longitudinal data were evaluated focusing primarily on the changes from baseline to month 1. Differences in proportions and comparisons between treatment and normal groups were compared using chi-square statistics (the Stuart-Maxwell test testing marginal homogeneity for all categories simultaneously). […] The Cohen Effect Size was computed by taking the mean change in measure score (baseline to month 1) and dividing that by the standard deviation of mean baseline score.^2 ^2 Cohen, J. J. (1988). Statistical power analysis for the behavioral sciences (p. 8). Erlbaum: Hillsdale, N.J.

[7] = 3.9 g/day compared with placebo
[8] = treatment group, 3.9 g daily, score 1-5, n 126
[9] = treatment group, baseline to month 1
[10] = treatment group, Cohen effect size
[11] = women on treatment who reported a meaningful improvement

With `NC[C@H]1CC[C@H](C(=O)O)CC1` [tranexamic acid] the “clinical relevance of mean reduction in menstrual blood loss (criteria: >50 mL; at least 36 mL meaningful)” value (women with menorrhagia [1]; 1.9 and 3.9 g/day) was “met both criteria for a clinically meaningful result”, the “proportion of responders (reduction in MBL and meaningful improvement, MI measure 6c)” value (women with menorrhagia [1]; 1.95 g/day) was 58.3% and the “LWH (MI measure 2)” value (women with menorrhagia [1]; [7]) was “significantly reduced”. The “subjects' assessment of MBL (MI item 1)” value (women with menorrhagia [1]; [7]) was “significantly reduced”, the “proportion of responders (reduction in MBL and meaningful improvement, MI measure 6c)” value (women with menorrhagia [1]; 3.9 g/day) was 71.0% and the “mean LPA score, change from baseline” value (women with menorrhagia [1]; Limitation in Physical Activities, MI measure 3) was “Significant treatment-related reductions”. For the same compound, the “mean LSLA score, change from baseline” value (women with menorrhagia [1]; Limitation in Social Leisure Activities, MI measure 4) was “Significant treatment-related reductions”, the “women satisfied with the treatment” value (heavy menstrual bleeding [2]) was 80% and the “LWH (MI measure #2)” value (women with menorrhagia [3]; [7]) was “significantly reduced”. For the same compound, the “subjects' assessment of MBL (MI measure #1)” value (women with menorrhagia [3]; [7]) was “significantly reduced”, the “mean LPA score, change from baseline” value (women with menorrhagia [3]; 3.9 g/day, MI measure 3) was “significant treatment-related reductions” and the “mean LSLA score, change from baseline” value (women with menorrhagia [3]; 3.9 g/day, MI measure 4) was “significant treatment-related reductions”. For the same compound, the “proportion of responders (reduction in MBL and meaningful improvement, MI measure #6c)” value (women with menorrhagia [3]; 3.9 g/day, after first treated cycle, p<0.0001 vs placebo) was 65.4%, the “regression slope of MBL response over six menstrual cycles” value (women with menorrhagia [3]; 3.9 g/day, p=0.615) was −0.90 mL/cycle and the “efficacy in the treatment of HMB” value (heavy menstrual bleeding [4]; doses of ˜4 g/day (typically 1 g every 6 hours), immediate-release) was “effective”. For the same compound, the side effects (heavy menstrual bleeding [4]; doses of ˜4 g/day (typically 1 g every 6 hours)) was “few side effects”, the “reduction of heavy menstrual bleeding” value (heavy menstrual bleeding [4]; research from European countries) was 40-50% and the clearance [5] was 137 mL/min. The half-life [5] was 10.2 h, the “calculated effect size, range over the four MI items” value ([6]; treatment group) was −0.9 to −1.2 and the “mean change in response from baseline to month 1, range over the four MI items” value ([6]; treatment group) was −0.76 to −1.16. For the same compound, the “MI Item 1 self-perceived blood loss, Month 1 mean” value ([6]; treatment group, 3.9 g daily oral up to 5 days, score 1-4, n 126) was 2.49, the “MI Item 2 limit you in your work, Month 1 mean” value [6, 8] was 2.12 and the “MI Item 3 limit you in your physical activities, Month 1 mean” value [6, 8] was 2.13. The “MI Item 4 limit you in your social/leisure activities, Month 1 mean” value [6, 8] was 2.00, the “MI Item 1 self-perceived blood loss, mean change” value [6, 9] was −0.76 and the “MI Item 2 limit you in your work, mean change” value [6, 9] was −0.93. For the same compound, the “MI Item 3 limit you in your physical activities, mean change” value [6, 9] was −1.16, the “MI Item 4 limit you in your social/leisure activities, mean change” value [6, 9] was −1.06 and the “women on treatment who reported a meaningful improvement” value ([6]; treatment group, month 1, MI measure 6/6c) was 78.6%. For the same compound, the “MI Item 2 limit you in your work, Effect Size” value [6, 10] was −0.939, the “MI Item 3 limit you in your physical activities, Effect Size” value [6, 10] was −1.221 and the “MI Item 4 limit you in your social/leisure activities, Effect Size” value [6, 10] was −1.000. The “MI Item 1 self-perceived blood loss, Effect Size” value ([6]; treatment group, Cohen effect size, mean change / SD of baseline) was −1.226, the “improvement in MI item 3 (physical activities)” value [6, 11] was 1.29 and the “improvement in MI item 4 (social/leisure activities)” value [6, 11] was 1.17.
